Test results: publication PMC6537752, “Molecular characterization of CHAD domains as inorganic polyphosphate-binding modules” (Life Science Alliance, 2019)
Values belong to the molecule of their own block, whether it stands above or below them.

Assays:
[1] = target: T1, ygiF-full length 1–433 (FL) (Escherichia coli, UniProt P30871); experiment: malachite green phosphate release; type: biochemical; conditions: 10 nM enzyme, 500 μM substrate, 20 mM Bis-Tris propane pH 8.5, 150 mM NaCl, 5 mM MgCl2, 37°C, 7 min
T1 sequence (P30871 1-433): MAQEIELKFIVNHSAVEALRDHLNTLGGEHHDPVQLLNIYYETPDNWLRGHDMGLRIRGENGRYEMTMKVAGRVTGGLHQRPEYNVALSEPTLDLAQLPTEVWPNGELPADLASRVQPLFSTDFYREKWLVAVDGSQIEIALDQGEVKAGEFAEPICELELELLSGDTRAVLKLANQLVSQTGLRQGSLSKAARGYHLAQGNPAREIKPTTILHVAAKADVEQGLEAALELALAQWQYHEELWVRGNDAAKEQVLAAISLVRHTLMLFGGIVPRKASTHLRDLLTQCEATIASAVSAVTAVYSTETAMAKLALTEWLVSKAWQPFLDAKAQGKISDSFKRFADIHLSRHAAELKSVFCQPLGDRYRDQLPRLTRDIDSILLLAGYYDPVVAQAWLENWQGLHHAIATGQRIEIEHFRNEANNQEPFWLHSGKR

CtCHAD = target: T2, CtCHAD (Chlorobaculum tepidum, UniProt Q8KE09); experiment: grating-coupled interferometry competition against polyP-coated chip; type: binding
T2 construct: gene CT0884; CHAD domain, residues 208-522; N-terminal 6xHis tag cleaved by TEV; E. coli BL21 (DE3) RIL; 36,194 D monomer; mainly dimer, some tetramer in solution
T2 sequence (Q8KE09 208-522): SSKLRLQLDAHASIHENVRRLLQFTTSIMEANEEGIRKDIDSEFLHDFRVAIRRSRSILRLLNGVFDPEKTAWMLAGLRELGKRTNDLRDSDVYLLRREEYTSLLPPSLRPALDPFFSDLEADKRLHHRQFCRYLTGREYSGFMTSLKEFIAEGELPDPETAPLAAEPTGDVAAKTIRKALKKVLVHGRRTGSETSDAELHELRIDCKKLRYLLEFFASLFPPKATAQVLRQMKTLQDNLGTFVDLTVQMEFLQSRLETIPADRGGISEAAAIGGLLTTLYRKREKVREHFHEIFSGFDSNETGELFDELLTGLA

ygiF-TTM 1–200 (TTM) = target: T3, ygiF-TTM 1–200 (TTM) (Escherichia coli, UniProt P30871); experiment: malachite green phosphate release; type: biochemical; conditions: 10 nM enzyme, 500 μM substrate, 20 mM Bis-Tris propane pH 8.5, 150 mM NaCl, 5 mM MgCl2, 37°C, 7 min
T3 sequence (P30871 1-200): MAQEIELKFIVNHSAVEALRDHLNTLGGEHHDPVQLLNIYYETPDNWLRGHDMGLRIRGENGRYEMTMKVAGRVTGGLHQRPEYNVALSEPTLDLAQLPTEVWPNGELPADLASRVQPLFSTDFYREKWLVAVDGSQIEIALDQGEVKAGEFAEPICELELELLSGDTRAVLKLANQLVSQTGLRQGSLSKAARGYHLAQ

[2] = target: the molecule itself; experiment: SEC; analytical size-exclusion chromatography, Superdex 200 Increase 10/300 GL, buffer A (50 mM PBS, pH 7.5, 500 mM NaCl), 500 μl of protein at 0.5 mg/ml, no polyP
[3] = target: the molecule itself; experiment: SEC-RALS (size-exclusion chromatography with right-angle light scattering); apo CtCHAD, 2 mg/ml, 20 mM Hepes pH 7.5, 150 mM NaCl, Superdex 200 10/300 increase, 35°C
[4] = target: the molecule itself; experiment: SEC-RALS (size-exclusion chromatography with right-angle light scattering); CtCHAD incubated with 1 mM polyP (average chain length ∼30 Pi units) for 3 h at room temperature, 2 mg/ml, 20 mM Hepes pH 7.5, 150 mM NaCl, Superdex 200 10/300 increase, 35°C

IC50 (CtCHAD): ~200 nM
Molecule: O=P(O)(O)OP(=O)(O)OP(=O)(O)O [tripolyphosphate]
malachite green phosphate release [1]: CHAD domain stimulated the previously reported tripolyphosphatase activity of ygiF | malachite green phosphate release (ygiF-TTM 1–200 (TTM)): The substrates tested were ATP (Merck), sodium tripolyphosphate (Merck), and polyP

B1: CtCHAD^208–522 (CHAD domain–containing protein from Chlorobium tepidum) (domain or fragment, UniProt Q8KE09 208-522, looked up)
chain: SSKLRLQLDAHASIHENVRRLLQFTTSIMEANEEGIRKDIDSEFLHDFRVAIRRSRSILRLLNGVFDPEKTAWMLAGLRELGKRTNDLRDSDVYLLRREEYTSLLPPSLRPALDPFFSDLEADKRLHHRQFCRYLTGREYSGFMTSLKEFIAEGELPDPETAPLAAEPTGDVAAKTIRKALKKVLVHGRRTGSETSDAELHELRIDCKKLRYLLEFFASLFPPKATAQVLRQMKTLQDNLGTFVDLTVQMEFLQSRLETIPADRGGISEAAAIGGLLTTLYRKREKVREHFHEIFSGFDSNETGELFDELLTGLA
notes: CHAD domain of the C. tepidum CHAD domain–containing protein, UniProt Q8KE09, residues 208-522; synthetic gene; not shown: His6, N-terminal, cleaved
stoichiometry N [2]: 2 | stoichiometry N [3]: 4 | stoichiometry N [4]: ≥ 4
